Patent publication US4563306A, “Peptides and process for preparing the same” (Tanabe Seiyaku Co., Ltd., priority 1983, dated 1986)

How the values were obtained:
Type in all cases: in vivo
Serum TSH levels = test: TSH-releasing activity (serum TSH by double-antibody radioimmunoassay after i.v. administration); conditions: male JCL: SD rats, intravenous, serum TSH 15 minutes after administration; parallel line assay, TRH = 1
Method: (1) TSH-releasing activity:
A test compound dissolved in a 0.1% BSA (bovine serum albumin)-containing physiological saline was intravenously administered to a group of five male JCL: SD rats. Fifteen minutes after the administration, blood was taken from the abdominal aorta under anesthesia. Serum TSH levels were determined by the double-antibody radioimmunoassay method (Midgley et al., Endocrinology., 79, 10 (1966)). The BSA-containing physiological saline was used for control instead of the test compound solution.

male STD/ddy mice [1] = test: Antagonistic effect on pentobarbital anesthesia; conditions: pentobarbital sodium 55 mg/kg i.p., test compound intravenous 10 minutes later, duration of anesthesia, parallel line assay, TRH = 1
Method: (2) Antagonistic effect on pentobarbital anesthesia:
Pentobarbital sodium was intraperitoneally administered to a group of ten male STD/ddy mice at a dose of 55 mg/kg. Ten minutes after the administration of pentobarbital sodium, a test compound dissolved in physiological saline was intravenously administered to the mice which had lost the righting reflex. The duration of anesthesia was measured as the time from the end of administration of the test compound until the righting reflex regained. Physiological saline was used for control instead of the test compound solution (Prange et al., Life Science, 14, 447-455, (1974)).

male STD/ddy mice [2] = test: Increasing effect on spontaneous locomotor activity (Ambulometer); conditions: intraperitoneal, activity measured for 60 minutes, parallel line assay, TRH = 1
Method: (3) Increasing effect on spontaneous locomotor activity:
A group of five male STD/ddY mice were individually placed in Ambulometer (i.e., an apparatus for measuring spontaneous locomotor activity; manufactured by OHARA IKA Co.) for 30 minutes to acclimatize to the apparatus. Thereafter, a test compound dissolved in physiological saline was intraperitoneally administered to the mice and, immediately after administration of the test compound, the spontaneous locomotor activity was measured for 60 minutes. Physiological saline was used for control instead of the test compound solution.

male STD/ddy mice [3] = test: Antagonistic effect on reserpine-induced hypothermia; conditions: intraperitoneal, rectal temperature 30, 60, 120 and 180 minutes after administration, parallel line assay, TRH = 1
Method: (4) Antagonistic effect on reserpine-induced hypothermia:
A test compound dissolved in physiological saline was intraperitoneally administered to a group of five male STD/ddy mice, and the rectal temperature was measured 30, 60, 120 and 180 minutes after the administration of the test compound. The increase in temperature in the treated group was compared to that in the control group which received physiological saline instead of the test compound solution.

male STD/ddy mice [4] = test: Potentiating effect on methamphetamine-induced hyperlocomotion; conditions: methamphetamine 0.2 mg/kg and test compound intraperitoneally at the same time, locomotor activity for 60 minutes, parallel line assay, TRH = 1
Method: (5) Potentiating effect on methamphetamine-induced hyperlocomotion:
A group of ten male STD/ddY mice were individually placed in Ambulometer for 30 minutes to acclimatize to the apparatus.

SMILES	TSH-releasing activity, potency ratio relative to TRH (Serum TSH levels)	Antagonistic effect on pentobarbital anesthesia, potency ratio relative to TRH (male STD/ddy mice [1])	Increasing effect on spontaneous locomotor activity, potency ratio relative to TRH (male STD/ddy mice [2])	Antagonistic effect on reserpine-induced hypothermia, potency ratio relative to TRH (male STD/ddy mice [3])	Potentiating effect on action of methamphetamine, potency ratio relative to TRH (male STD/ddy mice [4])
NC(=O)[C@@H]1CCCN1C(=O)[C@H](Cc1c[nH]cn1)NC(=O)[C@@H]1Cc2ccccc2C(=O)N1 [N^α -[(3 S)-1-oxo-1,2,3,4-tetrahydroisoquinoline-3-carbonyl]-L-histidyl-L-prolinamide]	1	10	10	10	10
NC(=O)[C@@H]1CCCN1C(=O)[C@H](Cc1c[nH]cn1)NC(=O)[C@@H]1CCC(=O)N1 [TRH, L-pyroglutamyl-L-histidyl-L-prolinamide]	1	1	1	1	1
